# ChEMBL document CHEMBL1128870, “Synthesis and anti-HIV activities of 2-deoxy-2,2-difluoro--L-ribofuranosyl-pyrimidine and -purine nucleosides” (Bioorg Med Chem Lett, 1995)
# Columns and labels:
# [1] = In vitro anti-HIV activity against HIV-1 in human peripheral blood mononuclear (PBM) cells; format: functional
# [2] = Cytotoxic activity against HIV-1 in peripheral blood mononuclear (PBM) cells; format: functional; conditions: Homo sapiens
# Vero = experiment: Cytotoxic activity against HIV-1 in rapidly dividing vero cells; format: functional, cell-based; conditions: Chlorocebus sabaeus
smiles,measurement,setting,value
"Cc1cn([C@@H]2O[C@@H](CO)C(O[Si](C)(C)C(C)(C)C)C2(F)F)c(=O)[nH]c1=O (single isomer, unassigned)",EC50,[1],> 100 µM
same,IC50,[2],> 100 µM
same,IC50,Vero,> 100 µM
"CC(C)(C)[Si](C)(C)OC1[C@H](CO)O[C@H](n2ccc(N)nc2=O)C1(F)F (single isomer, unassigned)",EC50,[1],> 100 µM
same,IC50,[2],> 100 µM
same,IC50,Vero,> 100 µM
Cc1cn([C@H]2C[C@H](N=[N+]=[N-])[C@@H](CO)O2)c(=O)[nH]c1=O [ZIDOVUDINE],EC50,[1],0.004 µM
same,IC50,[2],> 100 µM
"Nc1ncnc2c1ncn2[C@H]1O[C@@H](CO)C(O)C1(F)F (single isomer, unassigned)",EC50,[1],3.4 µM
same,IC50,[2],> 100 µM
same,IC50,Vero,> 100 µM
"Nc1ncnc2c1ncn2[C@@H]1O[C@@H](CO)C(O)C1(F)F (single isomer, unassigned)",EC50,[1],> 100 µM
same,IC50,[2],> 100 µM
same,IC50,Vero,> 100 µM
"Cc1cn([C@H]2O[C@@H](CO)C(O[Si](C)(C)C(C)(C)C)C2(F)F)c(=O)[nH]c1=O (single isomer, unassigned)",EC50,[1],> 100 µM
same,IC50,[2],> 100 µM
same,IC50,Vero,> 100 µM
"CC(C)(C)[Si](C)(C)OC1[C@H](CO)O[C@@H](n2ccc(N)nc2=O)C1(F)F (single isomer, unassigned)",EC50,[1],> 100 µM
same,IC50,[2],> 100 µM
same,IC50,Vero,> 100 µM
